Consider six compounds from US10894768B2, “Salt of (R)-(1-methylpyrrolidine-3-yl)methyl(3′-chloro-4′-fluoro-[1,1′-biphenyl]-2-yl)carbamate and crystal form thereof” (Dong-A St Co., Ltd., priority 2016, dated 2021).

Type in all cases: physicochemical
Data set [1] can be described thus: Accelerated stability in the solid state (accelerated test, 40° C./RH 75%). The conditions noted are these: for Property / Relative purity (%): 40° C./RH 75%; for Change in purity / Physical state: under the accelerated condition. On the procedure:
(§1) 4. Liquid Chromatography (HPLC)
(§2) Detector: Ultraviolet absorptiometer (detection wavelength of 244 nm)
(§3) Column: Waters, XBridge C18, 4.6*150 mm, 5 um
(§4) Column temperature: 40° C.
(§5) Mobile phase buffer: A 0.01M (NH4)HCO3 solution was prepared and adjusted to pH 10.5 by means of ammonia water.
(§6) Mobile phase A: Buffer:Acetonitrile=8:2
(§7) Mobile phase B: Acetonitrile
(§8) Sample solution: 1.0 mg/mL in 50% methanol

The nature of data set [2]: Stress stability in a solid state (stress test). As to the method:
as §1, §2, §3, §4, §5, §6, §7, §8

Data set [3] in a line: Accelerated and stress stability of forms I, II and III. Conditions: for Crystal form / Relative purity (%): oxalate; for Stability: under the accelerated and stress conditions. On the procedure:
X-ray powder diffraction (XRPD) pattern was obtained by means of a solid-phase detector of BRUKER D8 ADVANCE model using CuKα radiation at 1.54178 Å (40 kV, 40 mA). An analysis was performed through measurement at an angle 2θ in a range of 3° to 50° with a step size of 0.02°.
as §1, §2, §3, §4, §5, §6, §7, §8
The accelerated test (accelerated condition: 40° C./RH 75%) and the stress test (stress condition: 60° C.) were performed on the form I of (R)-(1-methylpyrrolidine-3-yl)methyl(3′-chloro-4′-fluoro-[1,1′-biphenyl]-2-yl)carbamate oxalate prepared in Example 2 above and the form II of (R)-(1-methylpyrrolidine-3-yl)methyl(3′-chloro-4′-fluoro-[1,1′-biphenyl]-2-yl)carbamate oxalate and the form III of (R)-(1-methylpyrrolidine-3-yl)methyl(3′-chloro-4′-fluoro-[1,1′-biphenyl]-2-yl)carbamate oxalate prepared in Examples 3 and 9, wherein analysis results thereof were shown in Table 3.

As to `CN1CC[C@@H](COC(=O)Nc2ccccc2-c2ccc(F)c(Cl)c2)C1.O=C(O)C(=O)O` [Oxalate, (R)-(1-methylpyrrolidine-3-yl)methyl(3′-chloro-4′-fluoro-[1,1′-biphenyl]-2-yl)carbamate oxalate], the Property entry is listed as “Solid” in data set [1] (Week 1); “Solid” in data set [1] (Week 2); “Solid” in data set [1] (Week 3); “Solid” in data set [1] (Week 4); “Solid” in data set [1] (initial); “Solid” in data set [2] (60° C., Week 1). Further, the Property result in data set [2] (60° C., Week 2) is “Solid”; in data set [2] (RH 90%, Week 1), “Solid”; in data set [2] (RH 90%, Week 2), “Solid”; in data set [2] (initial), “Solid”. Also, the “Relative purity (%)” value in data set [1] (Week 1), in data set [1] (Week 2), in data set [1] (Week 3), in data set [1] (Week 4) and in data set [1] (initial) was 99.3% throughout. The Change in purity result in data set [1] and in data set [2] (under the stress condition) was “do not show a change in purity” throughout. The Relative purity in data set [2] (60° C., Week 1) is 99.3/ %; in data set [2] (60° C., Week 2) it was 99.4/ %; in data set [2] (RH 90%, Week 1), 99.3/ %; in data set [2] (RH 90%, Week 2), 99.4/ %; in data set [2] (initial), 99.3/ %. In data set [2] (under the stress condition), the Physical state entry was “kept in an unmelted state”.
As for `CN1CC[C@@H](COC(=O)Nc2ccccc2-c2ccc(F)c(Cl)c2)C1.O=P(O)(O)O` [Phosphate], the Property result in data set [1] (Week 1) is listed as “Dissolved”; in data set [1] (Week 2) it was “Dissolved”; in data set [1] (Week 3), “Dissolved”; in data set [1] (Week 4), “Dissolved”; in data set [1] (initial), “Solid”; in data set [2] (60° C., Week 1), “Dissolved”. Moreover, the Property entry in data set [2] (60° C., Week 2) was “Dissolved”; in data set [2] (RH 90%, Week 1), “Dissolved”; in data set [2] (RH 90%, Week 2), “Dissolved”; in data set [2] (initial) it was “Solid”. Further, the “Relative purity (%)” value is 98.3% in data set [1] (Week 1); 98.3% in data set [1] (Week 2); 98.4% in data set [1] (Week 3); 98.4% in data set [1] (Week 4); 98.4% in data set [1] (initial). Besides, the Change in purity entry in data set [1] and in data set [2] (under the stress condition) was “do not show a change in purity” in each case. In addition, in data set [1], the Physical state entry is “show a melting phenomenon”. For the same compound, the Relative purity in data set [2] (60° C., Week 1) was 98.4/ %; in data set [2] (60° C., Week 2), 98.4/ %; in data set [2] (RH 90%, Week 1) it was 98.4/ %; in data set [2] (RH 90%, Week 2), 98.4/ %; in data set [2] (initial), 98.4/ %.
In the case of `CN1CC[C@@H](COC(=O)Nc2ccccc2-c2ccc(F)c(Cl)c2)C1.O=C(O)C(=O)O` [form I, (R)-(1-methylpyrrolidine-3-yl)methyl(3′-chloro-4′-fluoro-[1,1′-biphenyl]-2-yl)carbamate oxalate], the Crystal form result in data set [3] (40° C./RH 75% Week 1), in data set [3] (40° C./RH 75% Week 3), in data set [3] (60° C. Week 1), in data set [3] (60° C. Week 3) and in data set [3] (Early) was “form I” each time. The “Relative purity (%)” value in data set [3] (40° C./RH 75% Week 1) is 99.55%; in data set [3] (40° C./RH 75% Week 3), 99.60%; in data set [3] (60° C. Week 1), 99.71%; in data set [3] (60° C. Week 3) it was 99.61%; in data set [3] (Early), 99.66%. Also, the Stability entry in data set [3] is recorded as “stable”.
Regarding `CN1CC[C@@H](COC(=O)Nc2ccccc2-c2ccc(F)c(Cl)c2)C1.O=C(O)C(=O)O` [form II, (R)-(1-methylpyrrolidine-3-yl)methyl(3′-chloro-4′-fluoro-[1,1′-biphenyl]-2-yl)carbamate oxalate], the Crystal form result in data set [3] (40° C./RH 75% Week 1), in data set [3] (40° C./RH 75% Week 3), in data set [3] (60° C. Week 1), in data set [3] (60° C. Week 3) and in data set [3] (Early) was “form II” each time. Also, the “Relative purity (%)” value amounted to 99.83% in data set [3] (40° C./RH 75% Week 1); 99.81% in data set [3] (40° C./RH 75% Week 3); 99.85% in data set [3] (60° C. Week 1); 99.79% in data set [3] (60° C. Week 3); 99.87% in data set [3] (Early). For the same compound, the Stability entry in data set [3] is reported as “stable”.
As to `CN1CC[C@@H](COC(=O)Nc2ccccc2-c2ccc(F)c(Cl)c2)C1.O=C(O)C(=O)O` [form III, (R)-(1-methylpyrrolidine-3-yl)methyl(3′-chloro-4′-fluoro-[1,1′-biphenyl]-2-yl)carbamate oxalate], the Crystal form result in data set [3] (40° C./RH 75% Week 1), in data set [3] (40° C./RH 75% Week 3), in data set [3] (60° C. Week 1), in data set [3] (60° C. Week 3) and in data set [3] (Early) was “form III” each time. Also, the “Relative purity (%)” value in data set [3] (40° C./RH 75% Week 1) amounted to 99.79%; in data set [3] (40° C./RH 75% Week 3), 99.80%; in data set [3] (60° C. Week 1), 99.82%; in data set [3] (60° C. Week 3), 99.79%; in data set [3] (Early), 99.81%. Further, the Stability entry in data set [3] was “stable”.
Take “(R)-(1-methylpyrrolidine-3-yl)methyl(3′-chloro-4′-fluoro-[1,1′-biphenyl]-2-yl)carbamate citrate”: the Property result in data set [1] (Week 1) is “Solid”; in data set [1] (Week 2), “Solid”; in data set [1] (Week 3) it was “Dissolved”; in data set [1] (Week 4), “Dissolved”; in data set [1] (initial), “Solid”; in data set [2] (60° C., Week 1), “Dissolved”. Besides, the Property result in data set [2] (60° C., Week 2) is recorded as “Dissolved”; in data set [2] (RH 90%, Week 1), “Dissolved”; in data set [2] (RH 90%, Week 2) it was “Dissolved”; in data set [2] (initial), “Solid”. The “Relative purity (%)” value in data set [1] (Week 1) amounted to 97.7%; in data set [1] (Week 2) it was 97.6%; in data set [1] (Week 3) it was 97.7%; in data set [1] (Week 4) it was 97.4%; in data set [1] (initial), 97.7%. The Change in purity entry in data set [1] and in data set [2] (under the stress condition) was “do not show a change in purity” in each case. Moreover, in data set [1], the Physical state result is listed as “show a melting phenomenon”. Further, the Relative purity in data set [2] (60° C., Week 1) was 97.8/ %; in data set [2] (60° C., Week 2) it was 97.9/ %; in data set [2] (RH 90%, Week 1), 97.7/ %; in data set [2] (RH 90%, Week 2) it was 97.7/ %; in data set [2] (initial), 97.7/ %.
